Results taken from US6245758A, “Methods of use for peroxynitrite decomposition catalysts, pharmaceutical compositions therefor” (priority 1996, dated 2001).
Where two headings read alike, the source gives them in different places.

Tests used:
[1] = tested on: CuZnSOD; experiment: Inactivation of CuZnSOD by peroxynitrite (stopped flow superoxide dismutase activity)
Experimental: Stock solutions of bovine liver CuZnSOD (DDI Pharmaceuticals Inc., Mountain View CA) were prepared by dissolving -1.0 mg of enzyme in 10 mL of 50 mM potassium phosphate buffer at a pH=7.4. […] All kobs were the average of triplicate runs using a stopped flow spectrophotometer manufactured by Kinetic Instruments Inc. (Ann Arbor, Mich.) and was interfaced to a MAC IICX personal computer.
Inactivation of CuZn SOD by peroxynitrite.
Inactivation of peroxynitrite was performed by aloquating 1.0 mL of stock CuZn SOD solution into 50 mM potassium phosphate buffer pH=7.4 such that a final assay volume of 10 mL is achieved after addition of peroxynitrite and EDTA solutions. To these assay solution was added various amounts of peroxynitrite (25 mM stock solution) such that the final concentration of peroxynitrite in the assay varied from 0, 25, 50, 75 and 100 uM. After the addition of peroxynitrite, 100 uL of a 2.5 mM stock EDTA solution was added to each assay solution such that the final concentration of EDTA was 250 uM. Each solution was then assayed by stopped flow analysis for superoxide dismutase activity.

[2] = Stopped-flow kinetic analysis of catalytic decomposition of peroxynitrite by metal complexes; details: pH = 7.4, 22° C.
Experimental: To screen metal complexes for peroxynitrite decomposition catalytic activity of the present invention, peroxynitrite is prepared and isolated as its sodium salt by the reaction of acidic hydrogen peroxide with sodium nitrite followed by rapid quenching with NaOH as set out by Halfpenny and Robinson, in J. Chem. So., 1952, 928-938. Peroxynitrite has an absorbance maximum at 302 nm with an extinction coefficient of 1670 M^-1 cm^-1. Therefore, it is possible to directly observe the decomposition of peroxynitrite by stop-flow spectrophotometric analysis by monitoring the decomposition of the absorbance at 302 nm. That is, such observation of the decomposition of peroxynitrite at a rate accelerated over the natural decomposition rate with the addition of the metal complex identifies a compound of the present invention.
Kinetic measurements were made on an OLIS Rapid Scanning Stopped-Flow Spectrometer (On-Line Instrument Systems Inc., Bogart, Ga.)) using the OLISRSM-1000 Operating system for data acquisition and manipulation.
Thus, in a typical experiment the natural background decomposition rate of sodium peroxynitrite was determined as follows. A 24 mM stock solution of sodium peroxynitrite in 50 mM NaOH is load into the small volume syringe and 100 mM potassium phosphate pH=7.4 is charged into the large volume syringe of the stopped-flow spectrophotometer. All stopped -flow measurements were made at 22 ° C. Injection of the solutions into the sample compartment results in ~25 fold dilution of the stock sodium peroxynitrite. […] To test for catalytic peroxynitrite decomposition activity, the metal complex was dissolved in 100 mM potassium phosphate buffer pH=7.4 and loaded into the large syringe and the decomposition of peroxynitrite was monitored as described above. The catalytic rate constant (kcat M-1 sec^-1) for the complexes tested was determined by varying the complex concentration and plotting kobs vs [complex] Table 1. The kobs were obtained from averages of three stopped flow analysis at each catalyst concentration.

[3] = tested on: carrageenan-induced paw edema; experiment: Carrageenan-induced paw edema; type: in vivo, rat; details: 30 mg/kg i.v.
Description: Carrageenan-induced paw edema. The effects of peroxynitrite catalysts in vivo were initially tested on the carrageenan-induced paw edema. The choice of using this in vivo model of inflammation was based on the knowledge that 1) the inflammatory response is blocked by NOS inhibitors and 2) by superoxide dismutase (SOD). This indicates the participation of both NO and of O2-. Male Sprague Dawley rats were purchased from Harlan Sprague-Dawley (Indianapolis, Ind.). Male Sprague Dawley rats (175-200 g) received a subplantar injection in the right hind paw of carrageenan (0.1 ml of a 1% suspension in 0.85% saline). Paw volume was measured by a plethysmometer immediately before the injection of carrageenan and then at hourly intervals from 1 to 6 h. Edema was expressed as the increase in paw volume (in ml) measured after carrageenan injection compared to the pre-injection value for individual animals.

[4] = tested on: rat jejunum; experiment: Intestinal vascular permeability (radiolabelled albumin leakage) after endotoxin (LPS); type: in vivo; details: 30 mg/kg, i.v, 3 h after LPS; determined 1 h later
Experimental: FIG. 10 . Effects of FeTMPS, FeTMPyP or ZnTMPyP (30 mg/kg, i.v bolus) administered 3 h after challenge with E. coli lipopolysaccharide (LPS, 3 mg/kg, i.v bolus) on the increase in leakage of radio-labelled albumin (plasma extravasation, μl/g tissue) observed 1 h later (e.g 4 h after LPS challenge) in the rat jejunum. Results are shown as mean±s.e.m of 4-8 rats.
Intestinal vascular permeability was determined as the leakage into the jejunal tissue of [^125 I]-labelled bovine serum albumin ([^125 ]-BSA) administered intravenously (0.5 ml; 0.5 μCi) together with either LPS (3 mg/kg, serotype O111:B4) or isotonic saline. At 4 h after LPS administration, segments of jejunal tissue were ligated and removed. The intestinal tissues were rapidly washed, blotted dry and weighed. Blood (0.5 ml) was collected into tubes containing tri-sodium citrate (0.318% final concentration) and plasma prepared by centrifugation (10,000 g×10 min). The {^125 I]-BSA content in segments of whole tissue and in aliquots of plasma (100 μl) was determined in a gamma counter. The total content of plasma in the intestinal tissues was expressed as μl/g tissue. Changes in intravascular volume in the intestinal tissue was determined in an additional group of rats by administering ([^125 I]-BSA) intravenously 2 min before removal of the jejunum. The tissue and plasma content of radiolabel was determined and intravascular volume expressed as μl/g tissue. This value was substracted from that obtained in the plasma leakage studies to obtain a measure of the intestinal plasma albumin leakage. After LPS administration (4 h), there was a significant (P<0.01) increase in the plasma leakage (from 77±10 to 224±18 μl/g tissue, n=8).

[5] = tested on: RAW 264.7 cells; experiment: Cell protection assay, Alamar Blue viability after peroxynitrite challenge; type: cell-based, murine
Experimental: FIG. 8: Comparison of Ni and Fe Catalyst Protection of RAW Cells from PN(peroxynitrite)-mediated Injury. RAW 264.7 cells were plated at approximately 2×10^5 per well of a 96-well plate. […] Each condition represents the mean of 4 wells ±sem.
FIG. 9: Protection from PN-mediated RAW Cell Injury by Fe Catalysts. Cells were treated with 500 micromolar PN in the presence or the absence of the following catalysts: FeTMPyP, FeTMPS, FeTPPS. Cell viability was monitored as described in the text and figure legends 1, 2 and 3. Values represent the mean of 4 determinations ±sem.
(§1) Protocol for Cell Protection Assays using Peroxynitrite Decomposition Catalysts: A cell viability assay was established to rapidly assess the efficacy of peroxynitrite(PN) catalysts in protecting cells from PN25 mediated injury and death. The peroxynitrite challenge consisted of a pulse of synthetic PN added exogenously to cells. In order to better assess the efficacy of PN catalysts in protecting cells from PN-mediated damage, a quantity of peroxynitrite(in 50 mM NaOH) determined to cause maximal injury(100%) was added as an exogenous pulse to each well of cells in the presence or absence of catalyst. The NaOH vehicle was not toxic by itself.
(§2) Cells(RAW 264.7 cells or P815 mastocytoma cells; American Type Culture Collection, Rockville, Md.) were plated to confluence on 96-well tissue culture plates. Each well is washed twice with Dulbecco's phosphate buffered saline(DPBS; GIBCO BRL, Grand Island, N.Y.) to remove protein and other serum components which might react with the exogenous peroxynitrite. To each well is then added 200 μl of DPBS. PN is next placed into separate wells at increasing concentrations and cell viability monitored. The dose at which maximal cell death is attained is then utilized for the catalyst protection assessment.
Phosphate-buffered saline (200 uL) containing increasing concentrations of catalyst is next placed into individual wells of cells. The maximal dose of PN is subsequently administered to all wells of cells. After 15 minutes, the medium is removed from each well and the cells are either allowed to recover overnight in Earles minimum essential medium without phenol red and supplemented with 10% fetal bovine serum or alternatively the plate of cells is assayed that day for mitochondrial integrity using the Alamar Blue viability assay(Alamar Biosciences, Inc.; Sacramento, Calif.). In either case, cells are incubated at 37° C. in 5% CO2.
Cell injury is measured as follows. Briefly, 10% Alamar Blue(v/v) in Earles MEM with 10% FBS is added to each well of cells for 1-2h. Cell metabolism of the dye generates a fluorescent product which is directly related to the number of viable cells. Moreover, the production of the fluorescent metabolite is linear for over 2 h. The amount of fluorescent product in 100 μl of conditioned medium from each well of cells is then measured with an IDEXX fluorescent plate reader (gain setting of 1%) at an emission wavelength of 575 nm after exciting at 545 nm. Viability is either given as absolute fluorescent units or as a percent of the value obtained for untreated cells(100%).

[6] = Natural background decomposition of peroxynitrite; type: physicochemical; details: 22 ° C, 100 mM potassium phosphate pH=7.4
Experimental: Thus, in a typical experiment the natural background decomposition rate of sodium peroxynitrite was determined as follows. A 24 mM stock solution of sodium peroxynitrite in 50 mM NaOH is load into the small volume syringe and 100 mM potassium phosphate pH=7.4 is charged into the large volume syringe of the stopped-flow spectrophotometer. All stopped -flow measurements were made at 22 ° C. Injection of the solutions into the sample compartment results in ~25 fold dilution of the stock sodium peroxynitrite. […] To test for catalytic peroxynitrite decomposition activity, the metal complex was dissolved in 100 mM potassium phosphate buffer pH=7.4 and loaded into the large syringe and the decomposition of peroxynitrite was monitored as described above. The catalytic rate constant (kcat M-1 sec^-1) for the complexes tested was determined by varying the complex concentration and plotting kobs vs [complex] […] The kobs were obtained from averages of three stopped flow analysis at each catalyst concentration.

[7] = tested on: RAW and P815 cells; experiment: Comparison of increasing PN doses on RAW and P815 cells; type: cell-based, murine; details: data not shown
Experimental: as §1
as §2, with “To each well is then added 200 μl of DPBS.” left out, “The dose at which maximal cell death is attained is then utilized for the catalyst protection assessment.” left out
Cell injury is measured as follows. […] The amount of fluorescent product in 100 μl of conditioned medium from each well of cells is then measured with an IDEXX fluorescent plate reader (gain setting of 1%) at an emission wavelength of 575 nm after exciting at 545 nm. […]

[8] = tested on: human dermal microvascular endothelial cells (HDME cells); experiment: Endothelial cell injury assay (51Cr release), authentic peroxynitrite; type: cell-based; details: 45 min, peroxynitrite 0-800 uM
Experimental: FIG. 5: Peroxynitrite-mediated human microvascular endothelial cell injury. Authentic peroxynitrite was overlaid directly onto to ^51 Cr-labeled HMDE cells grown in 96-well cell culture plates. After 45 min the amount of specific cell injury was determined and correlated to peroxynitrite concentration by least squares regression line. Values represent the average of three replicates +/-SEM.
FIG. 6: Peroxynitrite catalysts, Fe(TMPyP) (triangle) and Ni(II)dienoN4)PF6 (circle) were added to HDME cells in the cell injury assay immediately before the addition of authentic peroxynitrite. After 45 min, the amount of specific cell injury was assessed by the amount of radiolabel released into the medium. Values represent the average of three replicas +/-SEM. *p<0.01 vs. 0 uM control by Dunnett's t Test.
[…]: Human recombinant tumor necrosis factor-alpha (TNF-a) was obtained from Genzyme Corporation, Cambridge, MA. Human recombinant complement C5a and L-arginine (L-arg) was purchased from Sigma Chemical Company, St. Louis, Mo. Authentic peroxynitrite in 50 mM NaOH was prepared as described above. […]
Endothelial Cell Injury Assays: The cytotoxic effects of stimulated neutrophils or peroxynitrite on endothelial cells was determined using a ^51 Cr-release assay as described by Moldow (Moldow et. al. Methods Enzymol., 105, 378-385, [1984]). […]

[9] = Beckman et al. 1990, cited from earlier work

Question: For O=C(O)CN(CCN(CC(=O)O)CC(=O)O)CC(=O)O [EDTA], which “CuZnSOD activity in control reaction” value ([1]; 250 uM EDTA alone) is on record?
Answer: no decrease in CuZnSOD activity

Question: Which results are given for C[n+]1ccc(-c2c3nc(c(-c4cc[n+](C)cc4)c4ccc([nH]4)c(-c4cc[n+](C)cc4)c4nc(c(-c5cc[n+](C)cc5)c5ccc2[nH]5)C=C4)C=C3)cc1.[Zn+2] [ZnTMPyP, reference compound]?
Answer: kcat, catalytic rate constant for the decomposition of sodium peroxynitrite [2]: Inactive; inhibition of edema formation [3]: failed to inhibit edema formation; radiolabelled albumin leakage [4]: did not inhibit radiolabelled albumin leakage; protection of cells from PN-mediated injury ([5]; PN 500 micromolar, RAW cells, FIG. 9 (H2 TMPyP and ZnTMPyP: data not shown)): relatively ineffective

Question: Which results are given for O=NOO [peroxynitrite, sodium peroxynitrite]?
Answer: kobs of decomposition of sodium peroxynitrite [6]: 1.39×10^-1±0.15 sec^-1; t1/2 of decomposition of sodium peroxynitrite [6]: 5.2 see; inactivation of CuZnSOD ([1]; peroxynitrite 0-100 uM): inactivates CuZnSOD enzyme in a concentration dependant manner; differential susceptibility of RAW and P815 cells to peroxynitrite-mediated injury [7]: no evidence for a differential susceptibility to peroxynitrite-mediated injury; endothelial cell injury by peroxynitrite [8]: dose dependent increase in cell injury; t1/2 of decomposition of sodium peroxynitrite ([9]; 37° C, pH=7.4): 1.9 s; observed rate for the decomposition of peroxynitrite ([9]; pH 7.4, 37° C): 3.6×10^-1 sec-i; decrease in cell viability caused by PN ([5]; RAW 264.7, PN dose of FIG. 8 experiment): 50%
